Test results: patent publication US10358434B2, “2-(3-pyridinyl)-1H-benzimidazole derivative compound and medicament containing same” (NIHON MEDI-PHYSICS CO., LTD., priority 2014, dated 2019)

Experiments:
[1] = In vivo kinetics experiment (radioactivity distribution); parameters: species or system Wistar male rat; conditions: rat; for Adrenal gland/blood ratio of radioactivity accumulation / Adrenal gland/fat ratio of radioactivity accumulation / Adrenal gland/kidney ratio of radioactivity accumulation / Adrenal gland/liver ratio of radioactivity accumulation / Adrenal gland/muscle ratio of radioactivity accumulation / Adrenal gland/small intestine ratio of radioactivity accumulation / Radioactivity distribution Adrenal gland / Radioactivity distribution Bladder (including urine) / Radioactivity distribution Blood / Radioactivity distribution Fat / Radioactivity distribution Femur / Radioactivity distribution Heart / Radioactivity distribution Kidney / Radioactivity distribution Large intestine / Radioactivity distribution Liver / Radioactivity distribution Lung / Radioactivity distribution Muscle (lower limbs) / Radioactivity distribution Remaining whole body / Radioactivity distribution Small intestine / Radioactivity distribution Spleen / Radioactivity distribution Stomach / Radioactivity distribution Testis / Radioactivity distribution Whole brain: caudal vein
Outline: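 Tissue radioactivity (% ID/g) and adrenal-to-blood, liver, kidney, small intestine, muscle and fat ratios determined at 10, 30 and 60 min post-dose. Tracers (approximately 1 to 3.7 MBq, saline with 1 w/v % ascorbic acid) injected i.v. into caudal vein of anesthetized 9-week male Wistar rats; organs excised, weighed, counted.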

[2] = system: human adrenal gland section expressing aldosterone-producing adenoma; assay: In vitro autoradiography using human adrenal adenoma; assay type: binding
Outline: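 Autoradiography readout: PSL in equal-sized ROIs over adenoma (B2) and normal adrenal cortex (B1), expressed as B2/B1 and decay-corrected using half-life, applied activity and plate contact time. Tissue was surgically excised human adrenal, frozen and cut at 7 μm, incubated 10 min with 5-33 kBq/mL tracer in BSA-containing PBS, then imaged after 16-20 h exposure.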

[3] = Plasma stability evaluation (TLC analysis); assay type: in vitro ADME; conditions: 37° C., 60 minutes
Outline: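 TLC analysis, using each compound's synthesis conditions, judged stability after methanol was added and samples were centrifuged to remove protein. Beforehand, each tracer had spent 60 minutes at 37° C in pooled heparinized normal human plasma.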

Adrenal gland/blood ratio of radioactivity accumulation ([1]; 10 min after administration): 158.10 ± 31.05
Adrenal gland/fat ratio of radioactivity accumulation ([1]; 10 min after administration): 210.51 ± 56.26
Adrenal gland/kidney ratio of radioactivity accumulation ([1]; 10 min after administration): 14.57 ± 3.27
Adrenal gland/liver ratio of radioactivity accumulation ([1]; 10 min after administration): 3.45 ± 0.50
Adrenal gland/muscle ratio of radioactivity accumulation ([1]; 10 min after administration): 74.08 ± 27.27
Adrenal gland/small intestine ratio of radioactivity accumulation ([1]; 10 min after administration): 13.90 ± 1.21
Radioactivity distribution Adrenal gland ([1]; 10 min after administration): 18.45 ± 3.39 % ID/g
Radioactivity distribution Bladder (including urine) ([1]; 10 min after administration): 0.86 ± 0.38 % ID/g
Radioactivity distribution Blood ([1]; 10 min after administration): 0.12 ± 0.02 % ID/g
Radioactivity distribution Fat ([1]; 10 min after administration): 0.09 ± 0.02 % ID/g
Radioactivity distribution Femur ([1]; 10 min after administration): 0.25 ± 0.01 % ID/g
Radioactivity distribution Heart ([1]; 10 min after administration): 0.31 ± 0.03 % ID/g
Radioactivity distribution Kidney ([1]; 10 min after administration): 1.28 ± 0.08 % ID/g
Radioactivity distribution Large intestine ([1]; 10 min after administration): 0.23 ± 0.03 % ID/g
Radioactivity distribution Liver ([1]; 10 min after administration): 5.32 ± 0.21 % ID/g
Radioactivity distribution Lung ([1]; 10 min after administration): 0.68 ± 0.08 % ID/g
Radioactivity distribution Muscle (lower limbs) ([1]; 10 min after administration): 0.27 ± 0.08 % ID/g
Radioactivity distribution Remaining whole body ([1]; 10 min after administration): 0.20 ± 0.02 % ID/g
Radioactivity distribution Small intestine ([1]; 10 min after administration): 1.32 ± 0.13 % ID/g
Radioactivity distribution Spleen ([1]; 10 min after administration): 0.93 ± 0.10 % ID/g
Radioactivity distribution Stomach ([1]; 10 min after administration): 0.86 ± 0.06 % ID/g
Radioactivity distribution Testis ([1]; 10 min after administration): 0.06 ± 0.01 % ID/g
Radioactivity distribution Whole brain ([1]; 10 min after administration): 0.02 ± 0.00 % ID/g
Adrenal gland/blood ratio of radioactivity accumulation ([1]; 30 min after administration): 206.39 ± 28.57
Adrenal gland/fat ratio of radioactivity accumulation ([1]; 30 min after administration): 295.05 ± 101.53
Adrenal gland/kidney ratio of radioactivity accumulation ([1]; 30 min after administration): 19.08 ± 3.40
Adrenal gland/liver ratio of radioactivity accumulation ([1]; 30 min after administration): 4.39 ± 0.61
Adrenal gland/muscle ratio of radioactivity accumulation ([1]; 30 min after administration): 160.44 ± 36.00
Adrenal gland/small intestine ratio of radioactivity accumulation ([1]; 30 min after administration): 5.99 ± 1.25
Radioactivity distribution Adrenal gland ([1]; 30 min after administration): 20.88 ± 2.82 % ID/g
Radioactivity distribution Bladder (including urine) ([1]; 30 min after administration): 2.02 ± 1.20 % ID/g
Radioactivity distribution Blood ([1]; 30 min after administration): 0.10 ± 0.01 % ID/g
Radioactivity distribution Fat ([1]; 30 min after administration): 0.07 ± 0.02 % ID/g
Radioactivity distribution Femur ([1]; 30 min after administration): 0.14 ± 0.01 % ID/g
Radioactivity distribution Heart ([1]; 30 min after administration): 0.25 ± 0.02 % ID/g
Radioactivity distribution Kidney ([1]; 30 min after administration): 1.10 ± 0.08 % ID/g
Radioactivity distribution Large intestine ([1]; 30 min after administration): 0.28 ± 0.04 % ID/g
Radioactivity distribution Liver ([1]; 30 min after administration): 4.76 ± 0.15 % ID/g
Radioactivity distribution Lung ([1]; 30 min after administration): 0.44 ± 0.02 % ID/g
Radioactivity distribution Muscle (lower limbs) ([1]; 30 min after administration): 0.13 ± 0.01 % ID/g
Radioactivity distribution Remaining whole body ([1]; 30 min after administration): 0.11 ± 0.01 % ID/g
Radioactivity distribution Small intestine ([1]; 30 min after administration): 3.54 ± 0.51 % ID/g
Radioactivity distribution Spleen ([1]; 30 min after administration): 0.41 ± 0.06 % ID/g
Radioactivity distribution Stomach ([1]; 30 min after administration): 1.11 ± 0.14 % ID/g
Radioactivity distribution Testis ([1]; 30 min after administration): 0.08 ± 0.01 % ID/g
Radioactivity distribution Whole brain ([1]; 30 min after administration): 0.01 ± 0.00 % ID/g
Adrenal gland/blood ratio of radioactivity accumulation ([1]; 60 min after administration): 214.22 ± 75.71
Adrenal gland/fat ratio of radioactivity accumulation ([1]; 60 min after administration): 371.37 ± 112.38
Adrenal gland/kidney ratio of radioactivity accumulation ([1]; 60 min after administration): 17.62 ± 3.44
Adrenal gland/liver ratio of radioactivity accumulation ([1]; 60 min after administration): 7.45 ± 2.80
Adrenal gland/muscle ratio of radioactivity accumulation ([1]; 60 min after administration): 210.35 ± 70.86
Adrenal gland/small intestine ratio of radioactivity accumulation ([1]; 60 min after administration): 4.17 ± 1.22
Radioactivity distribution Adrenal gland ([1]; 60 min after administration): 21.41 ± 4.42 % ID/g
Radioactivity distribution Bladder (including urine) ([1]; 60 min after administration): 3.87 ± 0.37 % ID/g
Radioactivity distribution Blood ([1]; 60 min after administration): 0.10 ± 0.02 % ID/g
Radioactivity distribution Fat ([1]; 60 min after administration): 0.06 ± 0.02 % ID/g
Radioactivity distribution Femur ([1]; 60 min after administration): 0.12 ± 0.03 % ID/g
Radioactivity distribution Heart ([1]; 60 min after administration): 0.24 ± 0.04 % ID/g
Radioactivity distribution Kidney ([1]; 60 min after administration): 1.23 ± 0.22 % ID/g
Radioactivity distribution Large intestine ([1]; 60 min after administration): 0.41 ± 0.09 % ID/g
Radioactivity distribution Liver ([1]; 60 min after administration): 3.08 ± 0.99 % ID/g
Radioactivity distribution Lung ([1]; 60 min after administration): 0.48 ± 0.04 % ID/g
Radioactivity distribution Muscle (lower limbs) ([1]; 60 min after administration): 0.11 ± 0.03 % ID/g
Radioactivity distribution Remaining whole body ([1]; 60 min after administration): 0.10 ± 0.02 % ID/g
Radioactivity distribution Small intestine ([1]; 60 min after administration): 5.36 ± 1.39 % ID/g
Radioactivity distribution Spleen ([1]; 60 min after administration): 0.32 ± 0.09 % ID/g
Radioactivity distribution Stomach ([1]; 60 min after administration): 1.66 ± 0.45 % ID/g
Radioactivity distribution Testis ([1]; 60 min after administration): 0.11 ± 0.03 % ID/g
Radioactivity distribution Whole brain ([1]; 60 min after administration): 0.02 ± 0.00 % ID/g
Radiochemical purity after incubation in human plasma ([3]; TLC analysis): 88%
Compound: Fc1cc2nc(-c3cncc(Cn4ccnc4)c3)n(CCC[18F])c2cc1Cl [[^18F] 500, 6-Chloro-5-fluoro-1-(3-[^18F]fluoropropyl)-2-[5-(imidazol-1-ylmethyl)pyridin-3-yl]benzimidazole]
accumulation of radioactivity in adrenal gland vs blood and peripheral tissues ([1]; Tables 9 to 22): high accumulation of radioactivity in adrenal gland was observed, in comparison to in blood and peripheral tissues
accumulation of radioactivity in adrenal gland section (autoradiogram) ([2]; FIGS. 18 to 31): accumulation of radioactivity was selectively observed in a region in which aldosterone-producing adenoma had been pathologically observed
B2/B1 accumulation ratio ([2]; section of FIG. 17(a)): 5.63
B2 (PSL value, aldosterone-producing adenoma) ([2]; section of FIG. 17(a), site 71a): 3619
B1 (PSL value, normal adrenal cortex) ([2]; section of FIG. 17(a), site 72a): 643
stability in human plasma [3]: hardly metabolized and decomposed in the plasma
